From patent publication US12691124B2, “Methods of controlling and improving brain health” (ICAHN SCHOOL OF MEDICINE AT MOUNT SINAI, priority 2019, dated 2026)

Columns and labels:
BRD4 = molecular target: T1, BRD4 (Mus musculus, UniProt Q9ESU6); assay: ChIP sequencing of BRD4 chromatin occupancy in neurons; type: cell-based
T1 construct: Primary cortical neurons express BRD2/3/4, with BRD2 and BRD4 being the most abundant; endogenous in cells; host or cells: primary cortical neuronal cultures (mouse)
Procedure: Chromatin Immunoprecipitation with Sequencing. Primary cortical neuronal cultures were washed once with PBS then fixed for 10 minutes with a 1% formaldehyde solution in PBS with protease inhibitors (Sigma #P8340) at room temperature. Fixation was quenched adding glycine to a final concentration of 0.125M (5 minutes, room temperature). 10e6 fixed cells were resuspended in 1 ml of lysis buffer (50 mM Hepes KOH, pH7.5, 140 mM NaCl, 1 mM EDTA, 10% glycerol, 0.5% NP-40, 0.25% Triton X-100) and 10 ul of protease inhibitor cocktail (PIC). Samples were rotated for 10 minutes at 4 degrees then spun at 1350 g at 4 C for 10 minutes. Pellets were resuspended in 1 ml of lysis buffer 2 (10 mM Tris-HCl pH8.0, 200 mM NaCl, 1 mM EDTA, 0.5 mM EGTA) and 10 ul PIC.). 5e6 nuclei were sonicated in lysis buffer 3 (10 mM Tris-HCl pH8.0, 100 mM NaCl, 1 mM EDTA, 0.5 mM EGTA, 0.1% Na-Deoxicholate, 0.5% N-Lauroylsarcosine) at 4 degrees for 5 cycles of 30 seconds ON/30 seconds OFF using the Diagenode bioruptor. After, 30 ul of 10% Triton-X100 was added to each sample and then spun for 15 minutes at 20,000 g at 4 degrees. Sonication efficiency was checked by running the samples on a 2% agarose gel to confirm enrichment for fragments from 200-500 bps.
Streptavidin M-280 dynabeads were blocked with 0.5% BSA solution and coupled to 7 ug of antibody (Brd4 #Ab84778, Brd2 Bethyl #A302-583A, Pol2 Ser5 #Ab5408) for at least 8 hours at 4 degrees, rotating. Antibody-coupled beads were then added to sonicated chromatin (20e6 cells for Brd2/Brd4, 10e6 for Pol2) and incubated overnight at 4 degrees. After washing the IPs eight times with wash buffer (50 mM Hepes-KOH pH7.6, 100 mM LiCl, 1 mM EDTA, 1% NP-40, 0.7% Na-Deoxycholate) and once with TE buffer (10 mM Tris-HCl, 1 mM EDTA, 50 mM NaCl), Chromatin was eluted from magnetic beads in 200 ul elution buffer ([…] Tris-HCl pH8.0, 10 mM EDTA, 1% SDS) for 45 minutes at 65 degrees. Samples were de-crosslinked overnight at 65 degrees and proteins and RNA were removed by incubating with RNAse and proteinase k. Samples were purified using the Qiagen PCR purification kit according to the manufacturers protocol.
Samples were end-repaired using the End-IT DNA End-Repair Kit (#ER0720). After 45 minutes incubation, samples were purified using the Qiagen PCR Clean up kit as described above. Samples were adenylated using a reaction mix (200 uM dATP, 1× Klenow buffer NEB2, Klenow Fragment (3′ to 5′ exo-), NEB M0212L) and incubating at 37 degrees for 30 minutes. […] Raw sequencing reads were then aligned to the mouse mm9 genome using the default settings of Bowtie (v2.2.0)87. Only uniquely mapped reads were retained, and the alignments were subsequently filtered using the SAMtools package (v0.1.19)88 to remove duplicate reads. […]

wild-type mice = assay: Classic fear conditioning in wild-type mice; type: in vivo, mouse; settings: five weeks of daily IBET858 injections
Procedure: […] Albans, VT) as described previously (Schaefer et al., “Control of Cognition and Adaptive Behavior by the GLP/G9a Epigenetic Suppressor Complex,” Neuron 64:678-691 (2009), which is hereby incorporated by reference in its entirety). Briefly, a mouse was placed in the test chamber (house lights on) and allowed to explore freely for 2 min. A white noise (80 dB) was then presented for 30 s, co-terminating with a mild foot shock (2 s, 0.5 mA). Two minutes later the same sequence of auditory cue-shock pairing was repeated. The mouse was removed from the chamber 30 s later and returned to its home cage. Freezing behavior was continuously recorded during the time spent in the test chamber. […] Twenty-four hours later, the mouse was placed back into the test chamber for 5 min and freezing behavior was recorded (context test). Two hours later, the mouse was tested for freezing in response to the auditory cue. Environmental and contextual cues were changed for the auditory cue test. The auditory cue test was divided into two phases: 3 min in the absence of the auditory cue and 3 min of the auditory cue. The time freezing during each test was converted to a percentage of freezing value.
To understand if these cellular and molecular improvements impact behavior, memory was assessed using the classic fear conditioning paradigm.

R6/2 mice = assay: Survival of R6/2 Huntington's mouse model; settings: 30 mg/kg i.p. daily from 6 weeks of age for 5 weeks

## CC(=O)N1c2ccc(-c3ccc(CN4CCCCC4)cc3)cc2[C@H](Nc2ccccc2)CC1C (stereo in doubt) [IBET858]
BRD4; 6 h IBET858
  genes that lose BRD4 at the transcriptional start site: 2226 genes
  genes with gain of BRD4 at the transcriptional start site: 295 genes
BRD4; DIV7, 6 h IBET858
  loci with reduced occupancy of BRD4: 4756 loci
BRD4; day 7, 6 h IBET858
  loci with increased occupancy of BRD4: 1827 loci
wild-type mice
  contextual recall: significantly increased
R6/2 mice
  survival: rescued survival
